Test results taken from patent publication US5710135A, “Anthracycline prodrugs, method for preparation as well as their use in selective chemotherapy” (Pharmachemie B.V., priority 1995, dated 1998).
Where a name gives a salt, the structure may show the parent alone. Read-outs that look alike come from different tables or passages of the source.

Experiments:
OVCAR-3 cells = test: Anti-proliferative effect on OVCAR-3 cells (sulforhodamine B protein dye stain); type: cell-based; details: Homo sapiens
Protocol: The anti-proliferative effect of daunorubicin, doxorubicin and idarubicin, and of the prodrugs of examples 1 to 6 on OVCAR-3 cells was determined by measuring cell growth with a protein dye stain (H. J. Haisma et al. Br. J. Cancer 1992, 66, 474-478. Cells were harvested with 0.25 trypsin and 0.2% EDTA in PBS to obtain a single cell suspension and seeded in 96-wells tissue culture plates (2×10^6 cells/mL 10 μL/well, 3 wells per concentration). Drug or prodrug was added (10 μL/well) at different concentrations with a range of 3 or more logs. After incubation for 24 hours, 200 μL of culture medium (supplemented DMEM) was added and the cells were grown for another 72 hours. Cells were fixed with 25% trichloroacetic acid for 1 hour at 4° C. and washed with water. After staining the cells with 0.4% sulforhodamine B in 1% (v/v) acetic acid for 15 min. at room temperature, they were washed with 1% acetic acid and air-dried. The bound dye was solubilized with 10 mM unbuffered Tris and the absorbance was read at 492 nm. The absorbance was linear with cell concentrations from 1,000 to 200,000 cells/well. Separate wells were fixed 24 hours after seeding to substract background staining. The anti-proliferative effects were determined and expressed as IC50 values which are the (pro)drug concentrations that gave 50% growth inhibition when compared to control cell growth.

β-glucuronidase = biological target: T1, β-glucuronidase (Homo sapiens, UniProt P08236); test: Enzyme hydrolysis half-life with β-glucuronidase; type: biochemical; details: 100 μM prodrug, pH 6.8, 0.03 U/mL β-glucuronidase, 37° C.; read-out: T1/2 (min.) of enzyme hydrolysis
T1 sequence (P08236 23-651): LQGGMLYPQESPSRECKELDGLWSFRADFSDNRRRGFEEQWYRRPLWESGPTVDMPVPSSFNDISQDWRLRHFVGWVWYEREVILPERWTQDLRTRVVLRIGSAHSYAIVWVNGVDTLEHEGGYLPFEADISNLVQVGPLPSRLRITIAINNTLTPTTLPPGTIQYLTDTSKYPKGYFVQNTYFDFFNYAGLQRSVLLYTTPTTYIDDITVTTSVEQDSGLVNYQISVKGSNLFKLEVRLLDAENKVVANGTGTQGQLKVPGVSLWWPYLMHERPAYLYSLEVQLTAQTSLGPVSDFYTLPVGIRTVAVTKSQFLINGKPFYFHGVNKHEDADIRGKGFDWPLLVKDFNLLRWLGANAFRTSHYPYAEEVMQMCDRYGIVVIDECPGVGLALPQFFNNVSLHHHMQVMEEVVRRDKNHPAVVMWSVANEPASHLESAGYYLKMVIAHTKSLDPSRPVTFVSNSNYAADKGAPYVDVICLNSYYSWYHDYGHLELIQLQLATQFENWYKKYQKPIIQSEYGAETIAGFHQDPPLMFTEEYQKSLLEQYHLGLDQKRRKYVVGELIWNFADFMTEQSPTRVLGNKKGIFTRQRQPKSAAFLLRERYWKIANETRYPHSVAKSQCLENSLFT
Protocol: (§1) Half-lifes of enzyme hydrolysis were determined by incubating 100 μM prodrug at pH =6.8 with 0.03 U/mL β-glucuronidase or 0.3 U/mL β-glucosidase or β-galactosidase at 37° C.

[1] = Enzyme hydrolysis half-life with β-glucosidase; type: biochemical; details: 100 μM prodrug, pH 6.8, 0.3 U/mL β-glucosidase, 37° C.; read-out: T1/2 (min.) of enzyme hydrolysis
Protocol: as §1

[2] = OVCAR-3 cells, 24 hours incubation with (pro)drug, then grown another 72 hours, read-out: IC50 (μM), (pro)drug concentration giving 50% growth inhibition
[3] = OVCAR-3, read-out: IC50 (μM), (pro)drug concentration giving 50% growth inhibition

## CC(=O)[C@]1(O)Cc2c(O)c3c(c(O)c2[C@@H](O[C@H]2C[C@H](NC(=O)OCc4ccc(NC(=O)O[C@@H]5O[C@H](C(=O)O)[C@@H](O)[C@H](O)[C@H]5O)cc4)[C@H](O)[C@H](C)O2)C1)C(=O)c1ccccc1C3=O [1c-para, N-[4-(idarubicin-N-carbonyl-oxymethyl)phenyl] O-β-glucuronyl carbamate sodium salt]
OVCAR-3 cells; [2]
  IC50: > 1 µM
β-glucuronidase
  half-life at 100 µM: 2 h

## COc1cccc2c1C(=O)c1c(O)c3c(c(O)c1C2=O)C[C@@](O)(C(=O)CO)C[C@@H]3O[C@H]1C[C@H](N)[C@H](O)[C@H](C)O1 [12b, doxorubicin, reference compound]
OVCAR-3 cells; [3]
  IC50: 1 µM

## COc1cccc2c1C(=O)c1c(O)c3c(c(O)c1C2=O)C[C@@](O)(C(C)=O)C[C@@H]3O[C@H]1C[C@H](NC(=O)OCc2ccc(NC(=O)O[C@@H]3O[C@H](CO)[C@@H](O)[C@H](O)[C@H]3O)cc2)[C@H](O)[C@H](C)O1 [1d-para, N-[4-(daunorubicin-N-carbonyl-oxymethyl)phenyl] O-β-glucosyl carbamate]
OVCAR-3 cells; [2]
  IC50: 20 µM
[1]
  half-life at 100 µM: > 8.33 h

## COc1cccc2c1C(=O)c1c(O)c3c(c(O)c1C2=O)C[C@@](O)(C(C)=O)C[C@@H]3O[C@H]1C[C@H](NC(=O)OCc2ccc(NC(=O)O[C@@H]3O[C@H](C(=O)O)[C@@H](O)[C@H](O)[C@H]3O)cc2)[C@H](O)[C@H](C)O1 [1a-para, N-[4-(daunorubicin-N-carbonyl-oxymethyl)phenyl] O-β-glucuronyl carbamate sodium salt]
OVCAR-3 cells; [2]
  IC50: 22 µM
β-glucuronidase
  half-life at 100 µM: 2.25 h

## COc1cccc2c1C(=O)c1c(O)c3c(c(O)c1C2=O)C[C@@](O)(C(=O)CO)C[C@@H]3O[C@H]1C[C@H](NC(=O)OCc2ccc(NC(=O)O[C@@H]3O[C@H](C(=O)O)[C@@H](O)[C@H](O)[C@H]3O)cc2)[C@H](O)[C@H](C)O1 [1b-para, N-[4-(doxorubicin-N-carbonyl-oxymethyl)phenyl] O-β-glucuronyl carbamate sodium salt]
OVCAR-3 cells; [2]
  IC50: > 10 µM
β-glucuronidase
  half-life at 100 µM: 2.83 h

## COc1cccc2c1C(=O)c1c(O)c3c(c(O)c1C2=O)C[C@@](O)(C(C)=O)C[C@@H]3O[C@H]1C[C@H](N)[C@H](O)[C@H](C)O1 [12a, daunorubicin, reference compound]
OVCAR-3 cells; [3]
  IC50: 1.2 µM

## COc1cccc2c1C(=O)c1c(O)c3c(c(O)c1C2=O)C[C@@](O)(C(C)=O)C[C@@H]3O[C@H]1C[C@H](NC(=O)OCc2ccccc2NC(=O)O[C@@H]2O[C@H](C(=O)O)[C@@H](O)[C@H](O)[C@H]2O)[C@H](O)[C@H](C)O1 [1a-ortho, N-[2-(daunorubicin-N-carbonyl-oxymethyl)phenyl] O-β-glucuronyl carbamate sodium salt]
OVCAR-3 cells; [2]
  IC50: 20 µM
β-glucuronidase
  half-life at 100 µM: 2.08 h

## CC(=O)[C@]1(O)Cc2c(O)c3c(c(O)c2[C@@H](O[C@H]2C[C@H](N)[C@H](O)[C@H](C)O2)C1)C(=O)c1ccccc1C3=O [12c, idarubicin, reference compound]
OVCAR-3 cells; [2]
  IC50: 0.1 µM
